Test results from paper PMC12020424, “Identification and Validation of Cyclic Peptides with Mucin-Selective, Location-Specific Binding in the Gastrointestinal Tract” (ACS Nano, 2025).
Bridge positions count the residues as written; N and C are the ends. Ends that are not written are not given here.

Tested on: MUC5AC-containing stomach tissue
Experiment: Ex vivo fluorescent binding to stomach tissue
Parameters: species or system porcine
Details: MUC5AC-selective peptides to stomach
From the text: After identifying the peptide hits for each mucin, we tested their binding in an ex vivo setting (Figure S1), evaluating their interaction with mucin-containing porcine tissue and semiquantitatively representing it through fluorescent imaging (Figure 3a). The cyclic peptides were synthesized and conjugated to a fluorophore, Alexa Fluor 647 (AF647), at the N-terminus to allow fluorescent imaging to be used to semiquantitatively measure the peptides’ ex vivo tissue binding, compared to free AF647 and AF647 conjugated to wheat germ agglutinin (WGA), a known lectin for glycoproteins.[40] […] Porcine GI tissue was used due to its similarity in mucin expression compared to human GI tissue and its capacity to source large surface areas of tissue for experiments.[41],[42] Representative IVIS images are shown in Figure 3b-e, where the first four columns represent the four identified peptides (M2.1–M2.4 in Figure 3b,c, M5.1–M5.4 in Figure 3d,e), the fifth column represents WGA-AF647, and the sixth column represents AF647. The “score” results for the peptide ligands are presented in Figure 3f,g for the mucins of interest, with Tables S2–S5 and Figure S3 detailing results for the other tissues (the equation for calculating the “score” is found in the Materials and Methodssection). […] We also examined selectivity by incubating peptides on nontarget tissues. Figure 3h,i depicts the “selectivity” results for the MUC2-selective and MUC5AC-selective peptides, respectively. Selectivity was calculated by determining the ratio of the “score” for a particular mucin to the sum of the “scores” for all mucins (see the Materials and Methods section for the equation used).
The top-performing hits from phage display were tested on ex vivo segments of porcine mucin-containing tissues (jejunal, stomach, and esophageal tissues) obtained from local abattoirs or laboratory-maintained pigs. Tissue was used either immediately after acquisition or after storage at −80 °C; tissue was used at most 1 week after acquisition and storage at −80 °C. After acquisition and equilibration to room temperature, the tissue was washed twice with 25 mL (each) of cold 1× PBS to remove undigested food and other debris. After washing and cleaning, the tissue was mounted between two magnetic plates with holes corresponding to a 48-well plate, as previously described,[72] such that the luminal side of the tissue was facing up (Figure S1). After the tissue was mounted, the amount of peptide/protein corresponding to 40 μg of AF647 was suspended in 200 μL of 1× PBS and added to the wells created by the magnetic plates. This was done 3× for each formulation to perform the experiment in triplicate. In addition, plain 1× PBS was added to one well to serve as the background measurement. […] After washing was complete, fluorescence imaging was performed using an IVIS Spectrum fluorescent imaging system (PerkinElmer), with an automatically calculated exposure time (usually ∼1 s), a 20 cm × 20 cm field of view, and an excitation/emission of 640/680 nm, respectively. The imaging results were analyzed using Living Image software to calculate the total fluorescence intensity for each well, and the results for each hit or control were averaged across different wells. […]
To better account for tissue-to-tissue variability, the results for each trial were reported as scores rather than using the raw fluorescence intensity. […]

Overall nanoparticle “score” (scaled between free AF647 (0) and WGA-AF647 (1), mean across trials n = 3): 0.800 | Selectivity (score for MUC5AC tissue / sum of scores for all mucins, n = 3): 0.370
Sequence: CTDKASSSC (disulfide 1-9 (inferred)) [Peptide M5.1, CX7C cyclic peptide hit for MUC5AC]
